Reference: patent publication US6867293B2, “Polynucleotide constructs having at least one transcriptional enhancer and encoding a modified rice EPSPS enzyme” (Syngenta Limited, priority 2000, dated 2005)
Where a name gives a salt, the structure may show the parent alone.

Experiments:
[1] = tested on: sensitive w/t form of EPSPS (endogenous); test: EPSPS assay of plant extracts +/- 0.1 mM glyphosate, sensitive w/t form; assay type: biochemical, corn; conditions: 0.1 mM N-(phosphonomethyl)glycine, 0.1 mM 14C-PEP, 0.75 mM shikimate-3-Pi
Procedure: (§1) Assays are carried out generally according to the radiochemical method of Padgette et al 1987 (Archives of Biochemistry and Biophysics, 258(2) 564-573) with K+ ions as the major species of cationic counterion. Assays in a total volume of 50 μl, in 50 mM Hepes(KOH) pH 7.0 at 25° C., contain purified enzyme or plant extract (see below) diluted appropriately in Hepes pH 7.0 containing 10% glycerol, and 5 mM DTT, ^14C PEP either as variable substrate (for kinetic determinations) or fixed at 100 or 250 μM and shikimate 3 Phosphate (K+ salt) at 2 or 0.75 mM as indicated. Optionally, for assays of crude plant extracts, assays also contain 5 mM KF and/or 0.1 mM ammonium molybdate. Assays are started with the addition of ^14C phosphoenolpyruvate (cyclohexylammonium+salt) and stopped after 2-10 minutes (2 minutes is preferable) with the addition of 50 μl of a solution of 1 part 1M acetic acid and 9 parts ethanol. […] Apparent Km and Vmax values are determined by least squares fit to a hyperbola with simple weighting using the Grafit 3.09b from Erithacus Software Ltd. Km values are generally ascertained using 8-9 concentrations of variable substrate ranging from Km/2-10 Km and triplicate points. […]

[2] = tested on: resistant form of EPSPS; test: EPSPS assay of plant extracts +/- 0.1 mM glyphosate, resistant form; assay type: biochemical, rice; conditions: 0.1 mM N-(phosphonomethyl)glycine, 0.1 mM 14C-PEP, 0.75 mM shikimate-3-Pi, estimated
Procedure: as §1

[3] = molecular target: T1, mutant form of rice EPSPS (Oryza sativa, UniProt A0A0N9WU17, P177S/T173I); test: EPSPS enzyme assay and kinetic constants, purified mutant rice EPSPS expressed in E. coli; assay type: biochemical
T1 sequence (A0A0N9WU17 72-515 T173I/P177S): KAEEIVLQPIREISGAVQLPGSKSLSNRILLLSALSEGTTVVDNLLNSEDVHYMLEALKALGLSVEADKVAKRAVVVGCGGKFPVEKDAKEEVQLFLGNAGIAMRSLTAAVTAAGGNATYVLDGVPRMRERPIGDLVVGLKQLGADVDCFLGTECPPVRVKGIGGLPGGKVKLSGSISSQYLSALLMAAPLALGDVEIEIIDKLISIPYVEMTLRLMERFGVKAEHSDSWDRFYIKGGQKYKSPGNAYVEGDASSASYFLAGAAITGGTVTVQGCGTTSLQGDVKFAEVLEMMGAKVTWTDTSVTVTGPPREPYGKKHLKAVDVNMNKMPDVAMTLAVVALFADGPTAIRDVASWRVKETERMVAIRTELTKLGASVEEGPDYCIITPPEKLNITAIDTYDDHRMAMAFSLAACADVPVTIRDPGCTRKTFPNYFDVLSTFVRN
Procedure: as §1

## O=C(O)CNCP(=O)(O)O [glyphosate, N-phosphonomethylglycine]
[1]
  inhibition of sensitive w/t EPSPS: > 98%
[2]
  inhibition of resistant (tolerant) EPSPS: ~8%
[2]; listed as N-(phosphonomethyl)glycine
  inhibition of resistant (tolerant) EPSPS: < 8.5%

## O=C(O)CNCP(=O)(O)O [potassium salt of glyphosate]
[3]
  IC50: ~600 µM
  Ki: ~200 µM
